Reference: ChEMBL document CHEMBL4118101 (Bioorg Med Chem, 2018)
Converted amounts (≈) assume the structure as drawn. The source made the active and inactive calls. The rule behind the calls is not given here.

Key:
Aspergillus nidulans [1] = assay: Ratio of MIC for Aspergillus nidulans ATCC 38163 in presence of 10% FBS to MIC for Aspergillus nidulans ATCC 38163 in absence of 10% FBS; type: functional
Candida albicans [2] = assay: Antifungal activity against fluconazole/ITC-resistant Candida albicans ATCC 90819 measured after 48 hrs by CLSI M27-A3 protocol based method; type: functional; settings: Candida albicans, ATCC 90819, 48 h; read-out: MIC
Aspergillus terreus = assay: Antifungal activity against Aspergillus terreus ATCC MYA-3633 measured after 48 hrs by CLSI M38-A2 protocol based method; type: functional; settings: ATCC MYA-3633, 48 h
Candida albicans [3] = assay: Induction of membrane permeabilization in Candida albicans ATCC 10231 assessed as membrane disruption at 4 times MIC after 1 hr by propidium iodide staining based fluorescence microscopy; type: functional, organism-based
[4] = Cytotoxicity against HEK293 cells assessed as cell survival at 3.9 ug/ml after 24 hrs by resazurin based assay relative to control; settings: human, read-out: Survival
Aspergillus flavus = assay: Antifungal activity against Aspergillus flavus ATCC MYA-3631 measured after 48 hrs by CLSI M38-A2 protocol based method; type: functional; settings: ATCC MYA-3631, 48 h
Candida albicans [5] = assay: Antifungal activity against fluconazole/ITC-susceptible Candida albicans ATCC MYA-2876 measured after 48 hrs by CLSI M27-A3 protocol based method; type: functional; settings: Candida albicans, ATCC MYA-2876, 48 h
Candida parapsilosis [6] = assay: Antifungal activity against Candida parapsilosis ATCC 22019 measured after 48 hrs in presence of 10% FBS by CLSI M27-A3 protocol based method; type: functional; settings: Lodderomyces parapsilosis, ATCC 22019, 48 h
Pichia kudriavzevii = assay: Antifungal activity against Candida krusei ATCC 6258 measured after 48 hrs by CLSI M27-A3 protocol based method; type: functional; settings: Pichia kudriavzevii, ATCC 6258, 48 h
Candida albicans [7] = assay: Inhibition of Candida albicans ATCC 10231 ERG11 assessed as lanosterol composition of total sterols at 0.48 ug/ml incubated for 10 mins followed by saponification for 2 hrs by GC-MS method relative to control; set-up: scale not given: the % may be the effect or the level left
Nakaseomyces glabratus [8] = assay: Antifungal activity against Candida glabrata isolate CG1 measured after 48 hrs by CLSI M27-A3 protocol based method; type: functional; settings: Nakaseomyces glabratus, 48 h; read-out: MIC
Cryptococcus neoformans [9] = assay: Antifungal activity against Cryptococcus neoformans isolate CN2 measured after 48 hrs by CLSI M27-A3 protocol based method; type: functional; settings: Cryptococcus neoformans, isolate CN2, 48 h; read-out: MIC
[10] = Hemolytic activity in mouse RBC at 31.3 ug/ml after 1 hr relative to control; type: ADME, cell-based, Erythrocyte; settings: mouse red blood cells (erythrocytes), at 31.3 µg/mL, read-out: Activity
BEAS-2B = assay: Cytotoxicity against human BEAS2B cells up to 7.8 ug/ml after 24 hrs by resazurin based assay; type: cell-based
[11] = Hemolytic activity in mouse RBC at […] ug/ml after 1 hr relative to control; type: ADME, cell-based, Erythrocyte; settings: mouse red blood cells (erythrocytes), read-out: Activity
Candida parapsilosis [12] = assay: Antifungal activity against Candida parapsilosis isolate CP2 measured after 48 hrs by CLSI M27-A3 protocol based method; type: functional; settings: Lodderomyces parapsilosis, isolate CP2, 48 h
Nakaseomyces glabratus [13] = assay: Antifungal activity against Candida glabrata isolate CG3 measured after 48 hrs by CLSI M27-A3 protocol based method; type: functional; settings: Nakaseomyces glabratus, 48 h; read-out: MIC
Nakaseomyces glabratus [14] = assay: Antifungal activity against Candida glabrata ATCC 2001 measured after 48 hrs by CLSI M27-A3 protocol based method; type: functional, CBS 138; settings: Nakaseomyces glabratus, CBS 138, 48 h; read-out: MIC
Aspergillus nidulans [15] = assay: Antifungal activity against Aspergillus nidulans ATCC 38163 measured after 48 hrs by CLSI M38-A2 protocol based method; type: functional; settings: ATCC 38163, 48 h
Cryptococcus neoformans [16] = assay: Antifungal activity against Cryptococcus neoformans isolate CN1 measured after 48 hrs by CLSI M27-A3 protocol based method; type: functional; settings: isolate CN1, 48 h
Candida albicans [17] = assay: Antifungal activity against Candida albicans ATCC 10231 measured after 48 hrs in presence of 10% FBS by CLSI M27-A3 protocol based method; type: functional; settings: Candida albicans, ATCC 10231, 48 h
Candida albicans [18] = assay: Antifungal activity against Candida albicans ATCC 10231 measured after 48 hrs by CLSI M27-A3 protocol based method; type: functional; settings: ATCC 10231, 48 h
Candida albicans [19] = assay: Inhibition of Candida albicans ATCC 10231 ERG11 assessed as eburicol composition of total sterols at 0.48 ug/ml incubated for 10 mins followed by saponification for 2 hrs by GC-MS method relative to control; set-up: scale not given: the % may be the effect or the level left
Candida albicans [20] = assay: Ratio of MIC for Candida albicans ATCC 10231 in presence of 10% FBS to MIC for Candida albicans ATCC 10231 in absence of 10% FBS; type: functional
Candida parapsilosis [21] = assay: Antifungal activity against Candida parapsilosis isolate CP3 measured after 48 hrs by CLSI M27-A3 protocol based method; type: functional; settings: Lodderomyces parapsilosis, isolate CP3, 48 h
[22] = Hemolytic activity in mouse RBC at 0.48 ug/ml after 1 hr relative to control; type: ADME, cell-based, Erythrocyte; settings: mouse red blood cells (erythrocytes), read-out: Activity
Cryptococcus neoformans [23] = assay: Antifungal activity against Cryptococcus neoformans isolate CN3 measured after 48 hrs by CLSI M27-A3 protocol based method; type: functional; settings: Cryptococcus neoformans, isolate CN3, 48 h; read-out: MIC
Candida albicans [24] = assay: Antifungal activity against fluconazole/ITC-resistant Candida albicans ATCC MYA-1237 measured after 48 hrs by CLSI M27-A3 protocol based method; type: functional; settings: Candida albicans, ATCC MYA-1237, 48 h; read-out: MIC
Candida parapsilosis [25] = assay: Antifungal activity against Candida parapsilosis isolate CP1 measured after 48 hrs by CLSI M27-A3 protocol based method; type: functional; settings: Lodderomyces parapsilosis, isolate CP1, 48 h
[26] = Hemolytic activity in mouse RBC at 7.8 ug/ml after 1 hr relative to control; type: ADME, cell-based, Erythrocyte; settings: mouse red blood cells (erythrocytes), read-out: Activity
[27] = Hemolytic activity in mouse RBC at 62.5 ug/ml after 1 hr relative to control; type: ADME, cell-based, Erythrocyte; settings: mouse red blood cells (erythrocytes), read-out: Activity
[28] = Hemolytic activity in mouse RBC at 1.95 ug/ml after 1 hr relative to control; type: ADME, cell-based, Erythrocyte; settings: mouse red blood cells (erythrocytes), at 1.95 µg/mL, read-out: Activity
[29] = Hemolytic activity in mouse RBC at 3.9 ug/ml after 1 hr relative to control; type: ADME, cell-based, Erythrocyte; settings: mouse red blood cells (erythrocytes), read-out: Activity
A549 = assay: Cytotoxicity against human A549 cells up to 7.8 ug/ml after 24 hrs by resazurin based assay; type: cell-based; settings: a549, 24 h
Candida albicans [30] = assay: Inhibition of Candida albicans ATCC 10231 ERG11 assessed as 14alphamethyl ergosta-8,24(28)-diene-3beta,6alpha-diol composition of total sterols at 0.48 ug/ml incubated for 10 mins followed by saponification for 2 hrs by GC-MS method relative to control; set-up: scale not given: the % may be the effect or the level left
Candida parapsilosis [31] = assay: Antifungal activity against Candida parapsilosis ATCC 22019 measured after 48 hrs by CLSI M27-A3 protocol based method; type: functional; settings: Lodderomyces parapsilosis, ATCC 22019, 48 h
Candida albicans [32] = assay: Inhibition of Candida albicans ATCC 10231 ERG11 assessed as ergosterol composition of total sterols at 0.48 ug/ml incubated for 10 mins followed by saponification for 2 hrs by GC-MS method (reference value: 100%); set-up: scale not given: the % may be the effect or the level left
Aspergillus nidulans [33] = assay: Antifungal activity against Aspergillus nidulans ATCC 38163 measured after 48 hrs in presence of 10% FBS by CLSI M38-A2 protocol based method; type: functional; settings: ATCC 38163, 48 h
Nakaseomyces glabratus [34] = assay: Antifungal activity against Candida glabrata isolate CG2 measured after 48 hrs by CLSI M27-A3 protocol based method; type: functional; settings: Nakaseomyces glabratus, isolate CG2, 48 h; read-out: MIC

With `CCCCCCCCCCCCNCC(O)(Cn1cncn1)c1ccc(F)cc1F` (stereo not given) the Ratio (Aspergillus nidulans [1]) was 4, the MIC (Candida albicans [2]) was 4.6 µM (≈ 1.94 µg/mL) and the MIC (Aspergillus terreus) was 9.2 µM (≈ 3.89 µg/mL). The Activity (Candida albicans [3]) was “Active”, the viability at 24 h, 3.9 ug/ml [4] was greater than 50% and the MIC (Aspergillus flavus) was 18.5 µM (≈ 7.82 µg/mL). It also gave an MIC (Candida albicans [5]) of 9.2 µM (≈ 3.89 µg/mL), an MIC (Candida parapsilosis [6]) of 0.24 mg/L and an MIC (Pichia kudriavzevii) of 2.3 µM (≈ 0.972 µg/mL). It also gave an Activity (Candida albicans [7]) of 10%, an MIC (Nakaseomyces glabratus [8]) of 4.6 µM (≈ 1.94 µg/mL) and an MIC (Cryptococcus neoformans [9]) of 0.57 µM (≈ 0.241 µg/mL). For the same molecule, the hemolysis at 1 h, 31.3 ug/ml [10] was 100%, the Activity (BEAS-2B) was “Non-Toxic” and the hemolysis at 1 h, 0.975 ug/ml [11] was 2%. It also gave a hemolysis at 1 h, 15.6 ug/ml [11] of 86%, an MIC (Candida parapsilosis [12]) of 0.57 µM (≈ 0.241 µg/mL) and an MIC (Nakaseomyces glabratus [13]) of 4.6 µM (≈ 1.94 µg/mL). The MIC (Nakaseomyces glabratus [14]) was 2.3 µM (≈ 0.972 µg/mL), the MIC (Aspergillus nidulans [15]) was 4.6 µM (≈ 1.94 µg/mL) and the MIC (Cryptococcus neoformans [16]) was 0.57 µM (≈ 0.241 µg/mL). For the same molecule, the MIC (Candida albicans [17]) was 1.95 mg/L, the MIC (Candida albicans [18]) was 2.3 µM (≈ 0.972 µg/mL) and the Activity (Candida albicans [19]) was 0.57%. For the same molecule, the Ratio (Candida albicans [20]) was 2, the MIC (Candida parapsilosis [21]) was 0.28 µM (≈ 0.118 µg/mL) and the hemolysis at 1 h, 0.48 ug/ml [22] was 2%. It also gave an MIC (Cryptococcus neoformans [23]) of 1.1 µM (≈ 0.465 µg/mL), an MIC (Candida albicans [24]) of 18.5 µM (≈ 7.82 µg/mL) and an MIC (Candida parapsilosis [25]) of 0.14 µM (≈ 0.0592 µg/mL). It also gave a hemolysis at 1 h, 7.8 ug/ml [26] of 21%, a hemolysis at 1 h, 62.5 ug/ml [27] of 98% and a hemolysis at 1 h, 1.95 ug/ml [28] of 2%. The hemolysis at 1 h, 3.9 ug/ml [29] was 8%, the Activity (A549) was “Non-Toxic” and the Activity (Candida albicans [30]) was 4.69%. It also gave an MIC (Candida parapsilosis [31]) of 1.1 µM (≈ 0.465 µg/mL), an Activity (Candida albicans [32]) of 36.6% and an MIC (Aspergillus nidulans [33]) of 7.8 mg/L. For the same molecule, the MIC (Nakaseomyces glabratus [34]) was 2.3 µM (≈ 0.972 µg/mL).
